# Paper PMC10379331, “Identification of a Putative SARS-CoV-2 Main Protease Inhibitor through In Silico Screening of Self-Designed Molecular Library” (International Journal of Molecular Sciences, 2023)
# Biological target: M^pro protein (SARS-CoV-2 main protease) (Severe acute respiratory syndrome coronavirus 2, UniProt P0DTD1)
# Experiment: FRET-based in vitro enzymatic inhibition assay
# Assay type: biochemical
# Details: not given
row,SMILES,IC50 [µM]
1,"Cc1cn(-c2cc(NC(=O)c3ccc(C)c(Nc4nccc(-c5cccnc5)n4)c3)cc(C(F)(F)F)c2)cn1 [Nilotinib, reference compound]",19.9 ± 1.27

# Same assay, conditions: 0.2 μM M^pro, 20 μM substrate MCA-[…]-Lys(Dnp)-Lys-NH2, 30 min preincubation at 37 °C; read-out: IC50 Value
row,SMILES,IC50 [µM]
1,Nc1n[nH]c2cccc(-c3ccc(C(=O)NCCNC(=O)c4ccc(Br)cc4)cc3)c12 [Compound V111],> 20
2,CCC(=O)Nc1ccc(-c2cccc(C(=O)N[C@@H]3CN[C@H](C(=O)Nc4ccc(Cl)c(C(F)(F)F)c4)C3)c2)cn1 [Compound V139],> 20
3,O=C(c1ccc(-c2cc(Nc3ccc(Cl)cc3Cl)ncn2)cc1)N1CCN(C(=O)c2ccccc2F)CC1 [Compound V159],> 20
4,Nc1n[nH]c2cccc(-c3ccc(C(=O)N4CCN(C(=O)c5cccc(F)c5)CC4)cc3)c12 [Compound V205],> 20
5,CCN(CC)C(=O)c1cncc(-c2cccc(C(=O)N[C@@H](C(=O)Nc3ccc(Cl)c(C(F)(F)F)c3)C(C)(C)C)c2)c1 [Compound V226],> 20
6,CC(=O)Nc1ccc(-c2ccc(C(=O)N[C@H](C(=O)Nc3ccc(Cl)c(C(F)(F)F)c3)C(C)(C)C)cc2)cn1 [Compound V231],> 20
7,CC(C)(C)OCC(NC(=O)c1ccc(-c2cncc(C(=O)NC3CC3)c2)cc1)C(=O)Nc1ccc(Cl)c(C(F)(F)F)c1 (stereo not shown) [Compound V243],> 20
8,Nc1n[nH]c2cc(-c3cn([C@@H]4CN[C@H](C(=O)Nc5ccc(Cl)c(C(F)(F)F)c5)C4)nn3)ccc12 [Compound V291],2.77 ± 0.56
9,Nc1nc2cc(-c3cn([C@@H]4CN[C@H](C(=O)Nc5ccc(Cl)c(C(F)(F)F)c5)C4)nn3)cnc2s1 [Compound V304],> 20
